Legend:
[1] = Acute oral toxicity in rats; assay type: in vivo, Wistar-Furth rat; conditions: 1:1 sesame oil
Description: When POH was given in an acute manner (a single oral dose, 1:1 mix with sesame oil, for 5 days), the following was observed: After 300 mg total POH dose, 2 out of 5 rats died within 24 hours. After a 200 mg total POH dose, 2 out of 5 rats died within 24 hours. After a 100 mg total POH dose, 5 out of 5 rats tolerated 5 days with weight loss.

M600B cells = experiment: M600B cell growth inhibition (FIG. 4); assay type: cell-based; conditions: M600B (human) cells
Description: NIH3T3 (mouse embryo) cells were obtained from the American Type Culture Collection and were grown in Dulbecco's modified Eagle's medium supplemented with 10% calf serum. M600B immortalized human mammary epithelial cells (Stampfer, M.R., 1985, J. Tissue Culture Methods 9:107-115) were, obtained from Dr. Martha Stampfer and were grown in supplemented HCDB 170 medium (Hammond, et al. (1984) Proc. Natl. Acad. Sci U.S.A. 81:5435-5439), as described previously (Stampfer, et al. (1985) Proc. Natl. Acad. Sci U.S.A. 82:2394-2398; Eldridge, et al. (1989) Cancer Res. 49:4326-4331).
All cells were maintained in 100-mm dishes at 37° C. in a humidified 5% CO2 atmosphere. Viable cells were distinguished from nonviable cells by counting azure II/methylene blue-stained colonies 10 days after the cells were plated at a density of 100 cells per dish. Trypan blue exclusion was measured by incubating cells for 1 min with one drop of trypan blue per 10 ml of cells. Viable (colorless) and nonviable (blue) cells were then counted on a hemocytometer.
We examined the effect of several of the terpenes on certain types of cell growth. […] Additionally, growth of HT29 (human colon adenocarcinoma) cells was inhibited by 80% by 1 mM perillyl alcohol.

[2] = Chronic dietary toxicity in rats
[3] = Effect of dietary perillyl alcohol on serum cholesterol and lipids in rats; assay type: in vivo, Wistar-Furth rat
From the text: Twenty-one female, six-weeks-old, Wistar-Furth rats were divided into three different diet groups of seven rats each. One group was fed a control diet, one group was fed a 1% perillyl alcohol diet, and one group was fed a 2% perillyl alcohol diet. Rats from each diet group were matched into pair feeding groups.
Rats in the control group were pair fed against rats in the 2% POH diet group. Rats in the 1% POH diet group were allowed to eat as much as they wanted. After one month, rats in the 1% POH diet group were also pair fed against rats in 2% POH group. After two months of feeding, rats in all groups were allowed to eat as much as they wanted. The rats were allowed to eat as much as they wanted because the diurnal rhythm of HMGCoA reductase activity might be related to food intake.
The rats' body weights were measured twice a week. Perillyl alcohol diets were made once a week and replaced daily.
[…] About 1 ml blood was taken from each rat each time and collected in heparin (SIGMA) coated tube. For CoQ analysis, 0.5 ml blood was added to the CoQ6 standard. For cholesterol analysis the blood were spun down at 3,000 rpm for 10 minutes and the plasma were taken. By three months, all rats were killed.
Total cholesterol, HDL cholesterol and triglyceride levels in the rats' plasma were measured using diagnostic kits from SIGMA according to manufacturer's instructions. LDL cholesterol levels were calculated by Friedewald's equation. […]

HT29 cells = experiment: Protein isoprenylation in HT29 cells; assay type: cell-based, human
human cancer cell lines = experiment: Growth of human cancer cell lines (NCI Developmental Therapeutics Program, FIG. 5); assay type: cell-based; conditions: various concentrations
Description: Various concentrations of perillyl alcohol caused the regression of a number of human cancer cell lines. FIG. 5 is a set of diagrams showing the effects of perillyl alcohol on different cancer cell lines. These experiments were conducted by the National Cancer Institute Developmental Therapeutics Program.

What does the source list for `C=C(C)[C@@H]1CC=C(CO)CC1` [perillyl alcohol]?
rats that tolerated 5 days with weight loss ([1]; 100 mg total POH dose): 5 out of 5; rats died within 24 hours ([1]; 200 mg total POH dose): 2 out of 5; rats died within 24 hours ([1]; 300 mg total POH dose): 2 out of 5; inhibition of cell growth (M600B cells): significantly inhibited cell growth in a dose-dependent manner; weight change ([2]; 0.5% POH diet, chronic): very small weight loss followed by weight gain; weight change ([2]; 1.0% POH diet, chronic): very small weight loss followed by weight gain; tolerability ([2]; 2.0% POH diet, chronic): tolerated with weight loss followed by weight gain; tolerability ([2]; 2.5% POH diet, chronic): tolerated with weight loss observed; death ([2]; 3.0% POH diet, chronic): 2/5; maximum dose tolerated (% diet) ([2]; dietary, data not shown): 2.5%; Toxicity ([2]; perillyl alcohol-fed rats): limited to weight loss; body weight versus controls ([2]; perillyl alcohol-fed, FIG. 8): did not achieve weights similar to controls; Body Weight ([3]; 1% POH diet): 207 ± 3 g; Heart Weight ([3]; 1% POH diet): 0.57 ± 0.05 g; Liver Weight ([3]; 1% POH diet): 6.1 ± 0.3 g; HDL Cholesterol ([3]; 1% POH diet, Kill): 37.6 ± 3.8 mg/dL; Total Cholesterol ([3]; 1% POH diet, Kill): 47.7 ± 4.3 mg/dL; Triglyceride ([3]; 1% POH diet, Kill): 29.8 ± 8.9 mg/dL; LDL Cholesterol ([3]; 1% POH diet, Kill, Friedewald's equation): 4.1 ± 2.4 mg/dL; HDL Cholesterol ([3]; 1% POH diet, WK3): 31.7 ± 2.3 mg/dL; Total Cholesterol ([3]; 1% POH diet, WK3): 45.9 ± 4.2 mg/dL; Triglyceride ([3]; 1% POH diet, WK3): 20.8 ± 5.2 mg/dL; LDL Cholesterol ([3]; 1% POH diet, WK3, Friedewald's equation): 10.1 ± 3.1 mg/dL; HDL Cholesterol ([3]; 1% POH diet, WK6): 33.1 ± 2.2 mg/dL; Total Cholesterol ([3]; 1% POH diet, WK6): 41.0 ± 3.0 mg/dL; Triglyceride ([3]; 1% POH diet, WK6): 29.5 ± 5.7 mg/dL; LDL Cholesterol ([3]; 1% POH diet, WK6, Friedewald's equation): 2.0 ± 1.4 mg/dL; HDL Cholesterol ([3]; 1% POH diet, WK9): 31.5 ± 2.6 mg/dL; Total Cholesterol ([3]; 1% POH diet, WK9): 43.2 ± 4.9 mg/dL; Triglyceride ([3]; 1% POH diet, WK9): 28.7 ± 5.7 mg/dL; LDL Cholesterol ([3]; 1% POH diet, WK9, Friedewald's equation): 6.0 ± 4.0 mg/dL; Body Weight ([3]; 2% POH diet): 198 ± 6 g; Heart Weight ([3]; 2% POH diet): 0.57 ± 0.05 g; Liver Weight ([3]; 2% POH diet): 6.2 ± 0.5 g; HDL Cholesterol ([3]; 2% POH diet, Kill): 39.8 ± 4.0 mg/dL; Total Cholesterol ([3]; 2% POH diet, Kill): 52.8 ± 6.8 mg/dL; Triglyceride ([3]; 2% POH diet, Kill): 33.8 ± 14.9 mg/dL; LDL Cholesterol ([3]; 2% POH diet, Kill, Friedewald's equation): 6.2 ± 1.8 mg/dL; HDL Cholesterol ([3]; 2% POH diet, WK3): 31.4 ± 1.6 mg/dL; Total Cholesterol ([3]; 2% POH diet, WK3): 44.2 ± 3.7 mg/dL; Triglyceride ([3]; 2% POH diet, WK3): 17.2 ± 5.3 mg/dL; LDL Cholesterol ([3]; 2% POH diet, WK3, Friedewald's equation): 9.4 ± 3.0 mg/dL; HDL Cholesterol ([3]; 2% POH diet, WK6): 33.5 ± 3.6 mg/dL; Total Cholesterol ([3]; 2% POH diet, WK6): 41.2 ± 5.0 mg/dL; Triglyceride ([3]; 2% POH diet, WK6): 21.1 ± 5.7 mg/dL; LDL Cholesterol ([3]; 2% POH diet, WK6, Friedewald's equation): 3.4 ± 2.2 mg/dL; HDL Cholesterol ([3]; 2% POH diet, WK9): 30.7 ± 2.9 mg/dL; Total Cholesterol ([3]; 2% POH diet, WK9): 40.7 ± 3.3 mg/dL; Triglyceride ([3]; 2% POH diet, WK9): 18.4 ± 2.9 mg/dL; LDL Cholesterol ([3]; 2% POH diet, WK9, Friedewald's equation): 6.4 ± 1.2 mg/dL; LDL level versus HDL level ([3]; after 6 weeks of treatment): LDL level is reduced much more than the HDL level; Triglyceride levels ([3]; after 6 weeks of treatment): dramatically reduced; total cholesterol level ([3]; after 6 weeks of treatment): reduced; differential isoprenylation in HT29 (HT29 cells): differential isoprenylation; effect on human cancer cell growth (human cancer cell lines): inhibited cancer cell growth
